# Experimental data from patent US8048881B2, “Pyrimidine derivatives and their use as P2Y12 receptor antagonists” (Actelion Pharmaceuticals Ltd., priority 2005, dated 2011).
# Where a name gives a salt, the structure may show the parent alone.
# Molecular target: T1, human P2Y12 receptor (Homo sapiens, UniProt Q9H244)
# T1 construct: expressed in transfected cells; host or cells: Chinese Hamster Ovary (CHO) cells
# Assay: P2Y12 receptor binding assay
# Conditions: CHO cells with recombinant expression of the human P2Y12 receptor; tritium-labeled 2-methyl-S-ADP; incubation at room temperature for 2 hours
# Method: P2Y12 Receptor Binding Assay
# Chinese Hamster Ovary (CHO) cells with recombinant expression of the human P2Y12 receptor were cultured in 24 well cell-culture plates. Cells were washed three times with binding buffer (50 mM Tris pH 7.4, 100 mM NaCl, 1 mM EDTA, 0.5% BSA). The cells were then incubated with 0.5 ml per well binding buffer containing tritium-labeled 2-methyl-thio-adenosine 5′-diphosphate (2-methyl-S-ADP) (between 100'000 and 300'000 dpm per well) and various concentrations of test compounds. After incubation at room temperature for 2 hours, cells were washed three times with binding buffer. Then, cells were solubilized by addition of 0.5 ml solubilization buffer (SDS, NaOH, EDTA). The content of each well was then transferred into beta-counter vials and 2.0 ml of Ultima Gold Scintillation liquid was added.
# T1 sequence (Q9H244 whole entry): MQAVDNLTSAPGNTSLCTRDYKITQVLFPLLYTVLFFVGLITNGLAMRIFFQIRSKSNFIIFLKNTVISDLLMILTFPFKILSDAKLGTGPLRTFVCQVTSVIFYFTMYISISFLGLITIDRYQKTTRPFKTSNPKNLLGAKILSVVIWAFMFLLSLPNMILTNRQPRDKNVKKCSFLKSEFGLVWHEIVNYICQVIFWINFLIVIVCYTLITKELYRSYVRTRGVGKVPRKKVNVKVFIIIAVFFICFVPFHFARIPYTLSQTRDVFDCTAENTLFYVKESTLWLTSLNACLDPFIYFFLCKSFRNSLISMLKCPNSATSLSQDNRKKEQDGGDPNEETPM
row,IC50 [nM],Structure (SMILES)
1,95,"CC(C)OC(=O)N1CCN(C(=O)[C@H](CCC(=O)O)NC(=O)c2cc(OC3CCCC3)nc(-c3ccccc3)n2)CC1 [Example 38, 4-{(S)-4-carboxy-2-[(6-cyclopentyloxy-2-phenyl-pyrimidine-4-carbonyl)-amino]-butyryl}-piperazine-1-carboxylic acid isopropyl ester]"
2,193,"CCOC(=O)N1CCN(C(=O)[C@H](CCC(=O)O)NC(=O)c2cc(OCC3CC3)nc(-c3ccccc3)n2)CC1 [Example 27, 4-{(S)-4-carboxy-2-[(6-cyclopropylmethoxy-2-phenyl-pyrimidine-4-carbonyl)-amino]-butyryl}-piperazine-1-carboxylic acid ethyl ester]"
3,390,"CCOC(=O)N1CCN(C(=O)[C@H](Cc2ccc(C(=O)O)cc2)NC(=O)c2cc(NC(C)C)nc(-c3ccccc3)n2)CC1 [Example 115, 4-{(S)-3-(4-carboxy-phenyl)-2-[(6-isopropylamino-2-phenyl-pyrimidine-4-carbonyl)-amino]-propionyl}-piperazine-1-carboxylic acid ethyl ester]"
4,223,"CCOC(=O)N1CCN(C(=O)[C@H](CCC(=O)O)NC(=O)c2cc(N[C@H]3CC[C@H](O)CC3)nc(-c3ccccc3)n2)CC1 [Example 243, 4-((S)-4-carboxy-2-{[6-(trans-4-hydroxy-cyclohexylamino)-2-phenyl-pyrimidine-4-carbonyl]-amino}-butyryl)-piperazine-1-carboxylic acid ethyl ester]"
5,940,"CCOC(=O)N1CCN(C(=O)[C@H](CCC(=O)O)NC(=O)c2cc(C)nc(-c3cccc(C)c3)n2)CC1 [Example 105, 4-{(S)-4-carboxy-2-[(6-methyl-2-m-tolyl-pyrimidine-4-carbonyl)-amino]-butyryl}-piperazine-1-carboxylic acid ethyl ester]"
6,201,"CCOC(=O)N1CCN(C(=O)[C@H](Cc2ccc(C(=O)O)cc2)NC(=O)c2cc(OC3CCCC3)nc(-c3ccccc3)n2)CC1 [Example 21, 4-{(S)-3-(4-carboxy-phenyl)-2-[(6-cyclopentyloxy-2-phenyl-pyrimidine-4-carbonyl)-amino]-propionyl}-piperazine-1-carboxylic acid ethyl ester]"
7,142,"CCCSc1cc(C(=O)N[C@@H](CCC(=O)O)C(=O)N2CCN(C(=O)OCC)CC2)nc(-c2ccccc2)n1 [Example 247, 4-{(S)-4-carboxy-2-[(2-phenyl-6-propylsulfanyl-pyrimidine-4-carbonyl)-amino]-butyryl}-piperazine-1-carboxylic acid ethyl ester]"
8,127,"CCOC(=O)N1CCN(C(=O)[C@H](CCCC(=O)O)NC(=O)c2cc(-c3ccccc3)nc(-c3ccccc3)n2)CC1 [Example 121, 4-{(S)-5-carboxy-2-[(2,6-diphenyl-pyrimidine-4-carbonyl)-amino]-pentanoyl}-piperazine-1-carboxylic acid ethyl ester]"
9,253,"C#Cc1cc(C(=O)N[C@@H](CCC(=O)O)C(=O)N2CCN(C(=O)OCC)CC2)nc(-c2ccccc2)n1 [Example 258, 4-{(S)-4-carboxy-2-[(6-ethynyl-2-phenyl-pyrimidine-4-carbonyl)-amino]-butyryl}-piperazine-1-carboxylic acid ethyl ester]"
10,207,"CCOC(=O)N1CCN(C(=O)[C@H](CCC(=O)O)NC(=O)c2cc(CCO)nc(-c3ccccc3)n2)CC1 [Example 408, 4-((S)-4-carboxy-2-{[6-(2-hydroxy-ethyl)-2-phenyl-pyrimidine-4-carbonyl]-amino}-butyryl)-piperazine-1-carboxylic acid ethyl ester]"
11,170,"CCOC(=O)N1CCN(C(=O)[C@H](CCC(=O)O)NC(=O)c2cc(C(F)(F)F)nc(-c3ccccc3)n2)CC1 [Example 431, 4-{(S)-4-carboxy-2-[(2-phenyl-6-trifluoromethyl-pyrimidine-4-carbonyl)-amino]-butyryl}-piperazine-1-carboxylic acid ethyl ester]"
12,101,"CCOC(=O)N1CCN(C(=O)[C@H](CCC(=O)O)NC(=O)c2cc(SC3CCCC3)nc(-c3ccccc3)n2)CC1 [Example 249, 4-{(S)-4-carboxy-2-[(6-cyclopentylsulfanyl-2-phenyl-pyrimidine-4-carbonyl)-amino]-butyryl}-piperazine-1-carboxylic acid ethyl ester]"
13,121,"CCOC(=O)N1CCN(C(=O)[C@H](CCC(=O)O)NC(=O)c2cc(N(C)C)nc(-c3ccccc3)n2)CC1 [Example 79, 4-{(S)-4-carboxy-2-[(6-dimethylamino-2-phenyl-pyrimidine-4-carbonyl)-amino]-butyryl}-piperazine-1-carboxylic acid ethyl ester triflate salt]"
14,174,"CCOC(=O)N1CCN(C(=O)[C@H](CCC(=O)O)NC(=O)c2cc(NCC(C)O)nc(-c3ccccc3)n2)CC1 (stereo partly drawn) [Example 231, 4-((S)-4-carboxy-2-{[6-(2-hydroxy-propylamino)-2-phenyl-pyrimidine-4-carbonyl]-amino}-butyryl)-piperazine-1-carboxylic acid ethyl ester]"
15,100,"CCOC(=O)N1CCN(C(=O)[C@H](CCC(=O)O)NC(=O)c2cc(N3CCOCC3)nc(-c3ccccc3)n2)CC1 [Example 225, 4-{(S)-4-carboxy-2-[(6-morpholin-4-yl-2-phenyl-pyrimidine-4-carbonyl)-amino]-butyryl}-piperazine-1-carboxylic acid ethyl ester formate salt]"
16,200,"CCOC(=O)N1CCN(C(=O)[C@H](CCC(=O)O)NC(=O)c2cc(-c3cccc(C)c3)nc(-c3ccccc3)n2)CC1 [Example 94, 4-{(S)-4-carboxy-2-[(2-phenyl-6-m-tolyl-pyrimidine-4-carbonyl)-amino]-butyryl}-piperazine-1-carboxylic acid ethyl ester]"
17,624,"CCOC(=O)N1CCN(C(=O)[C@H](CCC(=O)O)NC(=O)c2cc(SC3CCCCC3)nc(-c3ccccc3)n2)CC1 [Example 251, 4-{(S)-4-carboxy-2-[(6-cyclohexylsulfanyl-2-phenyl-pyrimidine-4-carbonyl)-amino]-butyryl}-piperazine-1-carboxylic acid ethyl ester]"
18,72,"CCOC(=O)N1CCN(C(=O)[C@H](CCC(=O)O)NC(=O)c2cc(C(C)=O)nc(-c3ccccc3)n2)CC1 [Example 402, 4-{(S)-2-[(6-acetyl-2-phenyl-pyrimidine-4-carbonyl)-amino]-4-carboxy-butyryl}-piperazine-1-carboxylic acid ethyl ester]"
19,202,"CCOC(=O)N1CCN(C(=O)[C@H](CCC(=O)O)NC(=O)c2cc(NCCCN3CCOCC3)nc(-c3ccccc3)n2)CC1 [Example 66, 4-((S)-4-carboxy-2-{[6-(3-morpholin-4-yl-propylamino)-2-phenyl-pyrimidine-4-carbonyl]-amino}-butyryl)-piperazine-1-carboxylic acid ethyl ester triflate salt]"
20,169,"CCCC(CCC)C(=O)Nc1cc(C(=O)N[C@@H](CCC(=O)O)C(=O)N2CCN(C(=O)OCC)CC2)nc(-c2ccccc2)n1 [Example 341, 4-((S)-4-carboxy-2-{[2-phenyl-6-(2-propyl-pentanoylamino)-pyrimidine-4-carbonyl]-amino}-butyryl)-piperazine-1-carboxylic acid ethyl ester]"
21,94,"CC(C)(C)NC(=O)N1CCN(C(=O)[C@H](CCC(=O)O)NC(=O)c2cc(OC3CCCC3)nc(-c3ccccc3)n2)CC1 [Example 435, (S)-5-(4-tert-butylcarbamoyl-piperazin-1-yl)-4-[(6-cyclopentyloxy-2-phenyl-pyrimidine-4-carbonyl)-amino]-5-oxo-pentanoic acid]"
22,307,"CCOC(=O)N1CCN(C(=O)[C@H](CO)NC(=O)c2cc(OC3CCCC3)nc(-c3ccccc3)n2)CC1 [Example 10, 4-{(S)-2-[(6-cyclopentyloxy-2-phenyl-pyrimidine-4-carbonyl)-amino]-3-hydroxy-propionyl}-piperazine-1-carboxylic acid ethyl ester]"
23,86,"CCOC(=O)N1CCN(C(=O)[C@H](CCC(=O)O)NC(=O)c2cc(CN(C)Cc3ccccc3)nc(-c3ccccc3)n2)CC1 [Example 362, 4-[(S)-2-({6-[(benzyl-methyl-amino)-methyl]-2-phenyl-pyrimidine-4-carbonyl}-amino)-4-carboxy-butyryl]-piperazine-1-carboxylic acid ethyl ester]"
24,243,"CCOC(=O)N1CCN(C(=O)[C@H](CC(=O)O)NC(=O)c2cc(OC3CCCC3)nc(-c3ccccc3)n2)CC1 [Example 2, 4-{(S)-3-carboxy-2-[(6-cyclopentyloxy-2-phenyl-pyrimidine-4-carbonyl)-amino]-propionyl}-piperazine-1-carboxylic acid ethyl ester]"
25,98,"CCCCc1cc(C(=O)N[C@@H](CCC(=O)O)C(=O)N2CCN(C(=O)OCC)CC2)nc(-c2ccccc2)n1 [Example 88, 4-{(S)-2-[(6-butyl-2-phenyl-pyrimidine-4-carbonyl)-amino]-4-carboxy-butyryl}-piperazine-1-carboxylic acid ethyl ester]"

row,Structure (SMILES),IC50 [nM]
1,"CCOC(=O)N1CCN(C(=O)[C@H](CCC(=O)OC(C)(C)C)NC(=O)c2cc(OCC(=O)O)nc(-c3ccccc3)n2)CC1 [Example 132, 4-{(S)-4-tert-butoxycarbonyl-2-[(6-carboxymethoxy-2-phenyl-pyrimidine-4-carbonyl)-amino]-butyryl}-piperazine-1-carboxylic acid ethyl ester]",8110
